Experiments:
Pityrosporum ovale [1] = test: Anti-Fungal Activity Against Pityrosporum ovale; assay type: cell-based; conditions: 4 mg/ml of test compound; 37° C. for 18 to 24 hours
Method: Betulin and its derivatives have low solubility in water, accordingly the stock solution of the test compounds were prepared in DMSO. The stock solutions for griseofulvin and nystatin were prepared in DMSO at a concentration of 10,000 μg/ml. The yeast Pityrosporum ovale (ATCC Rockville, Md.) was grown in Pityrosporum medium (ATCC Rockville, Md.) at 37° C. for 2-3 days. 5 ml of the medium was dispensed in 100×25 mm tubes and autoclaved at 121° C. for 15 minutes. To each tube at 45° C., 4 mg/ml of test compound was added and solidified in […], subsequently, each was inoculated with P. ovale and incubated at 37° C. for 18 to 24 hours.

M. canis = test: Agar Dilution Method 2, M. canis; assay type: cell-based; conditions: 12th day of inoculation
Method: (§1) Sabourand Dextrose Agar was prepared according the manufacturers instructions and 5 ml was dispensed in 100×25 mm tubes and autoclaved for 121° C. for 15 minutes. To each tube containing 5 ml of liquid agar at 45° C., 4 mg/ml of test antifungal compound was added, subsequently each was solidified in […], and inoculated with fungal cultures. After incubation for 10-12 days at 25° C. to 28° C., the growth of the fungus was recorded every second day.

Epidermophyton = test: Agar Dilution Method 1, Epidermophyton; assay type: cell-based; parameters: key: +++ = Maximum Fungal Growth; ++ = Moderate Fungal Growth; + = Minimum Fungal Growth; +/− = Very little Fungal Growth; − = No Fungal Growth
Method: as §1, with “100 X 25” for “100×25”, “different concentrations” for “4 mg/ml”, “compound in DMSO” for “compound”, “day. The Minimum Inhibitory Concentration (MIC) was determined by the tube containing the lowest concentration of test compound which inhibited fungal growth. See, Table 1.” for “day.”

Pityrosporum ovale [2] = test: Agar Dilution Method 1, Pityrosporum ovale; assay type: cell-based; parameters: key: +++ = Maximum Fungal Growth; ++ = Moderate Fungal Growth; + = Minimum Fungal Growth; +/− = Very little Fungal Growth; − = No Fungal Growth
Method: as §1, with “100 X 25” for “100×25”, “different concentrations” for “4 mg/ml”, “compound in DMSO” for “compound”, “day. The Minimum Inhibitory Concentration (MIC) was determined by the tube containing the lowest concentration of test compound which inhibited fungal growth. See, Table 1.” for “day.”

T. tonsurans = test: Agar Dilution Method 2, T. tonsurans; assay type: cell-based; conditions: 12th day of inoculation
Method: as §1

M. audouinii = test: Agar Dilution Method 2, M. audouinii; assay type: cell-based; conditions: 12th day of inoculation
Method: as §1

Microsporum canis = test: Agar Dilution Method 1, Microsporum canis; assay type: cell-based; parameters: key: +++ = Maximum Fungal Growth; ++ = Moderate Fungal Growth; + = Minimum Fungal Growth; +/− = Very little Fungal Growth; − = No Fungal Growth
Method: as §1, with “100 X 25” for “100×25”, “different concentrations” for “4 mg/ml”, “compound in DMSO” for “compound”, “day. The Minimum Inhibitory Concentration (MIC) was determined by the tube containing the lowest concentration of test compound which inhibited fungal growth. See, Table 1.” for “day.”

[3] = cited from earlier work

Compound	growth of P. ovale (Pityrosporum ovale [1])	Results using the Agar Dilution Method 2 in concentration, M. canis (M. canis) [µg/mL]	Results using the Agar Dilution Method 2 in concentration, T. tonsurans (T. tonsurans) [µg/mL]	Results using the Agar Dilution Method 2 in concentration, M. audouinii (M. audouinii) [µg/mL]	Fungal Growth Epidermophyton (Epidermophyton; 12.5 μg/ml in DMSO)	Fungal Growth Epidermophyton (Epidermophyton; 25 μg/ml in DMSO)	Fungal Growth Epidermophyton (Epidermophyton; 50 μg/ml in DMSO)	Fungal Growth Epidermophyton (Epidermophyton; 100 μg/ml in DMSO)	Fungal Growth Pityrosporum ovale (Pityrosporum ovale [2]; 12.5 μg/ml in DMSO)	Fungal Growth Pityrosporum ovale (Pityrosporum ovale [2]; 25 μg/ml in DMSO)	Fungal Growth Pityrosporum ovale (Pityrosporum ovale [2]; 50 μg/ml in DMSO)	Fungal Growth Pityrosporum ovale (Pityrosporum ovale [2]; 100 μg/ml in DMSO)	Fungal Growth Microsporum canis (Microsporum canis; 12.5 μg/ml in DMSO)	Fungal Growth Microsporum canis (Microsporum canis; 25 μg/ml in DMSO)	Fungal Growth Microsporum canis (Microsporum canis; 50 μg/ml in DMSO)	Fungal Growth Microsporum canis (Microsporum canis; 100 μg/ml in DMSO)	other results
C=C(C)[C@@H]1CC[C@]2(COC(=O)CCCC(=O)O)CC[C@]3(C)[C@H](CC[C@@H]4[C@@]5(C)CC[C@H](OC(=O)CCCC(=O)O)C(C)(C)[C@@H]5CC[C@]43C)[C@@H]12 [betulin 3,28-diglutarate]	inhibited the growth																
C=C(C)C1CCC2(COC(=O)CCCC(=O)O)CCC3(C)C(CCC4C5(C)CCC(O)C(C)(C)C5CCC43C)C12 (stereo not shown) [betulin 28-glutarate]	inhibited the growth																
C[C@@H]1[C@H](O)[C@@H](C)/C=C/C=C/CC/C=C/C=C/C=C/C=C/C(O[C@H]2O[C@H](C)[C@@H](O)[C@H](N)[C@@H]2O)CC2O[C@](O)(CC(O)C(O)CCC(O)CC(O)CC(O)CC(=O)O[C@H]1C)CC(O)C2C(=O)O (stereo partly shown) [Nystatin, reference compound]	inhibited	250	250	<125													Fungal Growth Epidermophyton (Epidermophyton; 125 μg/ml in DMSO): +/−; Fungal Growth Epidermophyton (Epidermophyton; 250 μg/ml in DMSO): −; Fungal Growth Epidermophyton (Epidermophyton; 500 μg/ml in DMSO): −; Fungal Growth Epidermophyton (Epidermophyton; 1000 μg/ml in DMSO): −; Fungal Growth Pityrosporum ovale (Pityrosporum ovale [2]; 125 μg/ml in DMSO): +; Fungal Growth Pityrosporum ovale (Pityrosporum ovale [2]; 250 μg/ml in DMSO): +/−; Fungal Growth Pityrosporum ovale (Pityrosporum ovale [2]; 500 μg/ml in DMSO): −; Fungal Growth Pityrosporum ovale (Pityrosporum ovale [2]; 1000 μg/ml in DMSO): −; Fungal Growth Microsporum canis (Microsporum canis; 125 μg/ml in DMSO): +; Fungal Growth Microsporum canis (Microsporum canis; 250 μg/ml in DMSO): +/−; Fungal Growth Microsporum canis (Microsporum canis; 500 μg/ml in DMSO): −; Fungal Growth Microsporum canis (Microsporum canis; 1000 μg/ml in DMSO): −
C=C(C)[C@@H]1CC[C@]2(CO)CC[C@]3(C)[C@H](CC[C@@H]4[C@@]5(C)CC[C@H](O)C(C)(C)[C@@H]5CC[C@]43C)[C@@H]12 [Betulin]		50		25	+	+	−	−	+++	+++	++	+/−	++	+	+/−	−	solubility in water [3]: about 0.15 mg/l
COC1=CC(=O)C[C@@H](C)[C@]12Oc1c(Cl)c(OC)cc(OC)c1C2=O [Griseofulvin, reference compound]		250	250	<125													Fungal Growth Epidermophyton (Epidermophyton; 125 μg/ml in DMSO): ++; Fungal Growth Epidermophyton (Epidermophyton; 250 μg/ml in DMSO): +; Fungal Growth Epidermophyton (Epidermophyton; 500 μg/ml in DMSO): −; Fungal Growth Epidermophyton (Epidermophyton; 1000 μg/ml in DMSO): −; Fungal Growth Pityrosporum ovale (Pityrosporum ovale [2]; 125 μg/ml in DMSO): +++; Fungal Growth Pityrosporum ovale (Pityrosporum ovale [2]; 250 μg/ml in DMSO): +++; Fungal Growth Pityrosporum ovale (Pityrosporum ovale [2]; 500 μg/ml in DMSO): ++; Fungal Growth Pityrosporum ovale (Pityrosporum ovale [2]; 1000 μg/ml in DMSO): −; Fungal Growth Microsporum canis (Microsporum canis; 125 μg/ml in DMSO): +/−; Fungal Growth Microsporum canis (Microsporum canis; 250 μg/ml in DMSO): +/−; Fungal Growth Microsporum canis (Microsporum canis; 500 μg/ml in DMSO): −; Fungal Growth Microsporum canis (Microsporum canis; 1000 μg/ml in DMSO): −
CC1(C)CC[C@]23CC[C@]4(C)[C@H](CC[C@@H]5[C@@]6(C)CC[C@H](O)C(C)(C)[C@@H]6CC[C@]54C)[C@H]2[C@H]1OC3 [Allobetulin]	inhibited the growth																Fungal Growth Epidermophyton (Epidermophyton; 9 μg/ml in DMSO): ++; Fungal Growth Epidermophyton (Epidermophyton; 19 μg/ml in DMSO): +; Fungal Growth Epidermophyton (Epidermophyton; 38 μg/ml in DMSO): +; Fungal Growth Epidermophyton (Epidermophyton; 75 μg/ml in DMSO): −; Fungal Growth Pityrosporum ovale (Pityrosporum ovale [2]; 9 μg/ml in DMSO): +++; Fungal Growth Pityrosporum ovale (Pityrosporum ovale [2]; 19 μg/ml in DMSO): +++; Fungal Growth Pityrosporum ovale (Pityrosporum ovale [2]; 38 μg/ml in DMSO): ++; Fungal Growth Pityrosporum ovale (Pityrosporum ovale [2]; 75 μg/ml in DMSO): −; Fungal Growth Microsporum canis (Microsporum canis; 9 μg/ml in DMSO): +++; Fungal Growth Microsporum canis (Microsporum canis; 19 μg/ml in DMSO): ++; Fungal Growth Microsporum canis (Microsporum canis; 38 μg/ml in DMSO): ++; Fungal Growth Microsporum canis (Microsporum canis; 75 μg/ml in DMSO): −
CC1(C)CCC23CCC4(C)C(CCC5C6(C)CCC(OC(=O)CCCC(=O)O)C(C)(C)C6CCC54C)C2C1OC3 (stereo not shown) [Allobetulin 3-glutarate]		25	25	9	++	+	+	−	+++	+++	++	−	+/−	+/−	−	−	
C=C(C)C1CCC2(COC(=O)c3ccccc3C(=O)O)CCC3(C)C(CCC4C5(C)CCC(O)C(C)(C)C5CCC43C)C12 (stereo not shown) [Betulin 28-phthalate]		50		25	+++	++	+	−	+++	+++	++	−	++	+	−	−	
allobetulin L-valine ester	inhibited the growth																
